Test results: patent US6664106B1, “Production of primmorphs from disassociated cells of sponges and corals” (priority 1998, dated 2003)

Tests used:
Format in all cases: cell-based, Suberites domuncula
[1] = tested on: primmorphs from S. domuncula; test: Proliferation of cells in primmorphs (parallel batches, BrdU-positive binuclear stages); settings: 0.01 to 1 μg PMA/ml
Protocol: In order to determine whether the cells do in fact divide after the DNA synthesis, the same batches were analysed which were also used to detect the incorporation of BrdU into cells from the primmorphs of S. domuncula. Those cells which were positive for BrdU and which were still in the binuclear stage after undergoing mitosis were counted.
In line with the above comments, it was also examined in parallel batches whether any change in proliferation occurred after incubation with the agent used here.

[2] = tested on: primmorphs from S. domuncula; test: DNA synthesis in primmorphs by BrdU labelling; settings: for percentage share of BrdU-positive cells (change in words): after addition as nutrient
Protocol: In order to determine the cell proliferation, the integration of BrdU [5-bromo-2′-deoxy-uridine] into the cellular DNA was measured using the “BrdU-iabeling and detection kit”, in accordance with the manufacturer's instructions.
For this purpose, the primmorphs are incubated, usually in 1 ml of the seawater/antibiotic solution, which also contains the BrdU labelling solution [final dilution: usually 1:1,000 (10 μM of BrdU)]. The incubation period is usually 12 hours; the incubation itself is carried out in culture chambers [e.g. the “culture chamber slides (Nunc)”—catalogue number 177453]. Subsequently, the cells are dissociated in CFMSW-E, washed three times in CFMSW-E and fixed/denatured in 70% ethanol [pH 2.0]. After that, the cells are incubated with anti-BrdU mouse monoclonal antibodies and the immune complex is made visible with anti-mouse Ig coupled to alkaline phosphatase and with the dye substrate nitro-blue tetrazolium salt. The cells are analysed under a light-optical microscope.
The primary primmorphs were obtained from individual cells from S. domuncula and used for the experiments after 21 days.
For this reason, the influence of a phorbol ester, phorbol 12-inyristate 13-acetate (PMA), on the percentage of BrdU-positive cells in primmorphs from S. domuncula was determined. The primmorphs were incubated for two days with different concentrations of PMA. After that, the DNA synthesis was determined by means of BrdU labelling as described above. The control, percentage of BrdU-positive cells in primmorphs without the test substance, was set at 100%.
FIG. 5. Influence of the phorbol ester phorbol 12-myristate 13-acetate (PMA) on the percentage share of BrdU-positive cells in primmorphs from S. domuncula. The primmorphs were incubated for two days with different concentrations of PMA. After this, DNA synthesis was determined by means of BrdU labelling. The control, percentage share of BrdU-positive cells among primmorphs without the test substance, was set at 100%. 300 cells were counted per batch.
FIG. 6. Influence of cadmium, concentrations between 0.1 ng/ml and 100 ng/ml were chosen, on the amount of the percentage share of BrdU-positive cells among primmorphs.

[3] = tested on: primmorphs from S. domuncula; test: Size (diameter) of primmorphs after addition of nutrients; settings: after addition as nutrient

Row | Compound | proliferation of cells in primmorphs [1] | percentage of BrdU-positive cells in primmorphs ([2]; 0.01 to 1 μg PMA/ml, incubated for two days, control without test substance set at 100%) | percentage of BrdU-positive cells in primmorphs ([2]; cadmium at a concentration of 1 ng/ml and more, single exposure) | size of the primmorphs (change in words) [3] | percentage share of BrdU-positive cells (change in words) [2]
1 | CCCCCCCCCCCCCC(=O)O[C@@H]1[C@@H](C)[C@@]2(O)[C@@H](C=C(CO)C[C@]3(O)C(=O)C(C)=C[C@@H]23)[C@@H]2C(C)(C)[C@]12OC(C)=O [PMA, phorbol 12-myristate 13-acetate] | increase | distinct percentage increase | – | – | –
2 | [Cd] [cadmium] | – | – | decline | – | –
3 | phosphatidyl serine | – | – | – | increase | rise
4 | phosphatidylinositol | – | – | – | increase | rise
